This note sets out measurements from patent US8242145B2, “Cyclic diaryl ether compounds as antagonists of prostaglandin D2 receptors” (Panmira Pharmaceuticals, LLC, priority 2008, dated 2012).

Where only a bound is given, the exact number is not on record here.

Assay [1] deals with T1, recombinant human CRTH2 receptor (Homo sapiens, UniProt Q9Y5Y4).
T1 construct: expressed in transfected cells
T1 sequence (Q9Y5Y4 1-395): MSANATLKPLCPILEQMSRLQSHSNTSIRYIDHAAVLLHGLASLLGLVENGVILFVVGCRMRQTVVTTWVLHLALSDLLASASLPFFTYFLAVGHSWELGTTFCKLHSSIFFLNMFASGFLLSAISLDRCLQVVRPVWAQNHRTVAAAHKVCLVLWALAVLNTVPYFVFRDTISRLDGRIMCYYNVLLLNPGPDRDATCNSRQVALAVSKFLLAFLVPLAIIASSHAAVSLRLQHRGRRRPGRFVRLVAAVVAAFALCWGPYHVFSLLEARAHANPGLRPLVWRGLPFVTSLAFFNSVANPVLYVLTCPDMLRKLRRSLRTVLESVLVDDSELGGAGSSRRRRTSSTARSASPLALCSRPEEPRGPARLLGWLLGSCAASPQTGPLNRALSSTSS
As to the kind of experiment: GTPγS binding assay. The class given is biochemical. The settings on record: +HSA; read-out: hDP2 GTPγS μM (+HSA). Put shortly:
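Membranes from CHO cells stably expressing recombinant receptor (~12.5 μg/well), incubated 60 min at 30° C with 0.05 nM [^35S]-GTPγS, 80 nM PGD2, 5 μM GDP in pH 7.4 Hepes buffer with 0.2% human serum albumin. Filter-bound radioactivity counted; specific binding = total minus binding without PGD2; IC50 from titration curves.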

In a further assay the target is T2, human DP2 receptor (Homo sapiens, UniProt Q9Y5Y4).
T2 construct: expressed in transfected cells
T2 sequence (Q9Y5Y4 1-395): T1 sequence (Q9Y5Y4 1-395)
As to the kind of experiment: DP2/CRTH2 radioligand binding assay using [3H]PGD2. To be noted: hDP2 (CRTH2) binding assay. The method in brief: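 HEK293 membranes with stable recombinant human DP2, incubated with 1 nM [3H]PGD2 and compound 60 min at room temperature in pH 7.4 HEPES/MnCl2/EDTA buffer, with or without 0.2% human serum albumin.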

The target in a further assay is T3, human DP1 receptor (Homo sapiens, UniProt Q13258).
T3 construct: tissue Biological Specialty Corporation; host or cells: human platelets, membranes
T3 sequence (Q13258 1-359): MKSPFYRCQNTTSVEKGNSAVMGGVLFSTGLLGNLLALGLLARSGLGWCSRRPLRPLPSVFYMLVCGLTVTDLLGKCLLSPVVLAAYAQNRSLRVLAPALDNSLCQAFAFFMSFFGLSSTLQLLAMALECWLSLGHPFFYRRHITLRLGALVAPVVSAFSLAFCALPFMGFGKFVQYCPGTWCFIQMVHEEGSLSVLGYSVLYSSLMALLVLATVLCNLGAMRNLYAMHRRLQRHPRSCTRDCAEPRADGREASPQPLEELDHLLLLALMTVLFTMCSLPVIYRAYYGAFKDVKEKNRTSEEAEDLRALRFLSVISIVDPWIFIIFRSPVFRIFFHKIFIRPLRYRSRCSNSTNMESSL
As to the kind of experiment: DP1 radioligand binding assay using [3H]BWA868C. To be noted: hDP1 binding. Put shortly: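 Human platelet membranes (20 μg protein/well) incubated 60 min at room temperature with 2 nM [3H]BWA868C in 50 mM Hepes, 10 mM MnCl2, 1 mM EDTA, ±0.2% human serum albumin, pH 7.4. Bound label measured after filtration; nonspecific binding defined with 10 μM BW A868C. IC50 from titration curves.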

As to `CC(C(=O)O)c1cccc(Oc2ccc(C(F)(F)F)cc2CN2CCOC2=O)c1` (stereo not drawn) [Compound 1-10, 2-{3-[2-(2-Oxo-oxazolidin-3-ylmethyl)-4-trifluoromethyl-phenoxy]-phenyl}-propionic acid], the IC50 in assay [1] was above 1 µM; on human DP2 receptor it was below 300 nM; at human DP1 receptor, above 1000 nM.

`COc1ccc(CC(=O)O)cc1Oc1ccc(Cl)cc1CN1CCOC1=O` [Compound 1-86, {3-[4-Chloro-2-(2-oxo-oxazolidin-3-ylmethyl)-phenoxy]-4-methoxy-phenyl}-acetic acid]: the IC50 in assay [1] is below 0.3 µM; on human DP2 receptor, below 300 nM; on human DP1 receptor, above 1000 nM.

Consider `COc1ccc(CC(=O)O)cc1Oc1ccc(Cl)cc1CN1C(=O)O[C@H](c2ccccc2)[C@@H]1C` [Compound 1-31, {3-[4-Chloro-2-((4S,5R)-4-methyl-2-oxo-5-phenyl-oxazolidin-3-ylmethyl)-phenoxy]-4-methoxy-phenyl}-acetic acid], for which the IC50 is below 0.3 µM in assay [1], below 300 nM at human DP2 receptor and above 1000 nM on human DP1 receptor.

In the case of `C[C@@H]1[C@H](c2ccccc2)OC(=O)N1Cc1cc(Br)ccc1Oc1ccc(Cl)c(CC(=O)O)c1` [Compound 1-53, {5-[4-Bromo-2-((4R,5S)-4-methyl-2-oxo-5-phenyl-oxazolidin-3-ylmethyl)-phenoxy]-2-chloro-phenyl}-acetic acid], the IC50 in assay [1] was above 1 µM; at human DP2 receptor it was below 300 nM; on human DP1 receptor, above 1000 nM.

With `O=C(O)Cc1cccc(Oc2ccc(Br)cc2CN2C[C@@H](c3ccccc3)OC2=O)c1` [Compound 1-47, {3-[4-Bromo-2-((R)-2-oxo-5-phenyl-oxazolidin-3-ylmethyl)-phenoxy]-phenyl}-acetic acid], the IC50 in assay [1] was below 0.3 µM; at human DP2 receptor it was below 300 nM; on human DP1 receptor, 300 to 1000 nM.

On to `C[C@H]1[C@@H](c2cc(C(F)(F)F)cc(C(F)(F)F)c2)OC(=O)N1Cc1cc(Br)ccc1Oc1cccc(CC(=O)O)c1` [Compound 1-18, (3-{2-[(4S,5R)-5-(3,5-Bis-trifluoromethyl-phenyl)-4-methyl-2-oxo-oxazolidin-3-ylmethyl]-4-bromo-phenoxy}-phenyl)-acetic acid], for which the IC50 in assay [1] is below 0.3 µM; on human DP2 receptor, below 300 nM; on human DP1 receptor it was below 300 nM.

Consider `C[C@H]1[C@@H](c2ccccc2)OC(=O)N1Cc1cc(-c2cncn2C)ccc1Oc1cccc(CC(=O)O)c1` [Compound 1-22, {3-[4-(3-Methyl-3H-imidazol-4-yl)-2-((4S,5R)-4-methyl-2-oxo-5-phenyl-oxazolidin-3-ylmethyl)-phenoxy]-phenyl}-acetic acid], for which the results for the IC50 (in assay [1]; on human DP2 receptor; on human DP1 receptor) were above 1 µM, below 300 nM and 300 to 1000 nM, respectively.

As to `COc1ccc(CC(=O)O)cc1Oc1ccc(-c2ccccc2)cc1CN1C(=O)O[C@H](c2ccccc2)[C@@H]1C` [Compound 1-35, {4-Methoxy-3-[3-((4S,5R)-4-methyl-2-oxo-5-phenyl-oxazolidin-3-ylmethyl)-biphenyl-4-yloxy]-phenyl}-acetic acid], the figures for the IC50 (in assay [1]; on human DP2 receptor; on human DP1 receptor) were above 1 µM, below 300 nM and above 1000 nM, respectively.

`C[C@@H]1[C@H](c2ccccc2)OC(=O)N1Cc1cc(C(F)(F)F)ccc1Oc1cc(CC(=O)O)ccc1O` [Compound 1-78, {4-Hydroxy-3-[2-((4R,5S)-4-methyl-2-oxo-5-phenyl-oxazolidin-3-ylmethyl)-4-trifluoromethyl-phenoxy]-phenyl}-acetic acid]: the IC50 in assay [1] is below 0.3 µM; at human DP2 receptor it was below 300 nM; on human DP1 receptor, above 1000 nM.

With `COc1ccc(CC(=O)O)cc1Oc1ccc(-c2cnn(C)c2)cc1CN1C(=O)O[C@H](c2ccccc2)[C@@H]1C` [Compound 1-43, {4-Methoxy-3-[2-((4S,5R)-4-methyl-2-oxo-5-phenyl-oxazolidin-3-ylmethyl)-4-(1-methyl-1H-pyrazol-4-yl)-phenoxy]-phenyl}-acetic acid], the IC50 in assay [1] was 0.3 to 1 µM; at human DP2 receptor, below 300 nM; at human DP1 receptor, above 1000 nM.

Take `CCOc1ccc(CC(=O)O)cc1Oc1ccc(C(F)(F)F)cc1CN1C(=O)O[C@@H](c2ccccc2)[C@H]1C` [Compound 1-83, {4-Ethoxy-3-[2-((4R,5S)-4-methyl-2-oxo-5-phenyl-oxazolidin-3-ylmethyl)-4-trifluoromethyl-phenoxy]-phenyl}-acetic acid]: the IC50 in assay [1] is below 0.3 µM; on human DP2 receptor it was below 300 nM; on human DP1 receptor, above 1000 nM.

Take `C[C@@H]1[C@H](c2ccccc2)OC(=O)N1Cc1cc(Br)ccc1Oc1cc(Cl)cc(CC(=O)O)c1` [Compound 1-56, {3-[4-Bromo-2-((4R,5S)-4-methyl-2-oxo-5-phenyl-oxazolidin-3-ylmethyl)-phenoxy]-5-chloro-phenyl}-acetic acid]: the values for the IC50 (in assay [1]; on human DP2 receptor; on human DP1 receptor) were below 0.3 µM, below 300 nM and above 1000 nM, respectively.

Turning to `COc1ccc(CC(=O)O)cc1Oc1ccc(-c2ccccc2OC)cc1CN1C(=O)O[C@H](c2ccccc2)[C@@H]1C` [Compound 1-37, {4-Methoxy-3-[2′-methoxy-3-((4S,5R)-4-methyl-2-oxo-5-phenyl-oxazolidin-3-ylmethyl)-biphenyl-4-yloxy]-phenyl}-acetic acid], the IC50 was below 0.3 µM in assay [1], below 300 nM at human DP2 receptor and above 1000 nM on human DP1 receptor.

Consider `COc1ccc(CC(=O)O)cc1Oc1ccc(-c2cccnc2)cc1CN1C(=O)O[C@H](c2ccccc2)[C@@H]1C` [Compound 1-40, {4-Methoxy-3-[2-((4S,5R)-4-methyl-2-oxo-5-phenyl-oxazolidin-3-ylmethyl)-4-pyridin-3-yl-phenoxy]-phenyl}-acetic acid], for which the IC50 in assay [1] was below 0.3 µM; on human DP2 receptor, below 300 nM; at human DP1 receptor, above 1000 nM.

Consider `C[C@H]1[C@@H](c2ccccc2)OC(=O)N1Cc1cc(Br)ccc1Oc1ccc(C(F)(F)F)c(CC(=O)O)c1` [Compound 1-25, {5-[4-Bromo-2-((4S,5R)-4-methyl-2-oxo-5-phenyl-oxazolidin-3-ylmethyl)-phenoxy]-2-trifluoromethyl-phenyl}-acetic acid], for which the IC50 in assay [1] is above 1 µM; at human DP2 receptor, 300 to 1000 nM; at human DP1 receptor, above 1000 nM.

`O=C(O)Cc1cc(Oc2ccc(C(F)(F)F)cc2CN2CCOC2=O)ccc1-c1ccccc1` [Compound 1-13, {4-[2-(2-Oxo-oxazolidin-3-ylmethyl)-4-trifluoromethyl-phenoxy]-biphenyl-2-yl}-acetic acid]: the IC50 in assay [1] was 0.3 to 1 µM; on human DP2 receptor, below 300 nM; at human DP1 receptor, below 300 nM.

Turning to `COc1ccc(-c2ccc(Oc3cc(CC(=O)O)ccc3OC)c(CN3C(=O)O[C@H](c4ccccc4)[C@@H]3C)c2)cc1` [Compound 1-39, {4-Methoxy-3-[4′-methoxy-3-((4S,5R)-4-methyl-2-oxo-5-phenyl-oxazolidin-3-ylmethyl)-biphenyl-4-yloxy]-phenyl}-acetic acid], the results for the IC50 (in assay [1]; on human DP2 receptor; at human DP1 receptor) were above 1 µM, below 300 nM and above 1000 nM, respectively.

For the compound `C[C@@H]1[C@H](c2cc(C(F)(F)F)cc(C(F)(F)F)c2)OC(=O)N1Cc1cc(Br)ccc1Oc1cccc(CC(=O)O)c1` [Compound 1-52], the figures for the IC50 (in assay [1]; at human DP2 receptor; at human DP1 receptor) were above 1 µM, below 300 nM and above 1000 nM, respectively.
